test system: FLAP (5-lipoxygenase activating protein); assay: In vitro binding test: displacement of [3H]-7-chloro-3-(5-((3-fluoropyridin-2-yl)methoxy)-2-methylphenyl)-3,4-dihydroquinazolin-2(1H)-one from Sf9 microsome fractions; set-up: species or system human and mouse; conditions: Sf9 microsome fractions expressing FLAP; 100% = radioligand binding with 10 μM sodium 3-(3-(tert-butylsulfanyl)-1-(4-chlorobenzyl)-5-isopropyl-1H-indol-2-yl)-2,2-dimethylpropanoate, 0% = DMSO; test compound concentration not given
Method in brief: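 Sf9 microsomes expressing human or mouse FLAP (2 μg/mL) preincubated with compound 10 min at room temperature, then 120 nM tritiated quinazolinone ligand added for 60 min; buffer 100 mM Tris-HCl pH 7.5 with NaCl, EDTA, DTT, glycerol, Tween20. Bound ligand filtered and counted by scintillation; 10 μM indole propanoate defines 100% inhibition, DMSO 0%.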

Row | SMILES | inhibitory rate (%)
1 | COC(=O)c1ccc2c(c1)NC(=O)N(c1cc(OCc3ccccn3)ccc1C)C2 [Example 232, methyl 3-(2-methyl-5-(pyridin-2-ylmethoxy)phenyl)-2-oxo-1,2,3,4-tetrahydroquinazoline-7-carboxylate] | 104%
2 | O=C1Nc2cc(-c3cn[nH]c3)nc(C3CC3)c2CN1c1cc2c(cc1Cl)CCC(c1ncccc1F)O2 (stereo not shown) [Example 116, 3-(6-chloro-2-(3-fluoropyridin-2-yl)-3,4-dihydro-2H-chromen-7-yl)-5-cyclopropyl-7-(1H-pyrazol-4-yl)-3,4-dihydropyrido[4,3-d]pyrimidin-2(1H)-one] | 102%
3 | Cc1ccc(S(=O)(=O)Oc2ccc3c(c2)NC(=O)N(c2cc(OCc4ncccc4F)ccc2C)C3)cc1 [Example 252, 3-(5-((3-fluoropyridin-2-yl)methoxy)-2-methylphenyl)-2-oxo-1,2,3,4-tetrahydroquinazolin-7-yl 4-methylbenzenesulfonate] | 105%
4 | Cc1cc2c(c(C)n1)CN(c1cc3c(cc1Cl)CCC(c1ncccc1F)O3)C(=O)N2 (stereo not shown) [Example 63, 3-(6-chloro-2-(3-fluoropyridin-2-yl)-3,4-dihydro-2H-chromen-7-yl)-5,7-dimethyl-3,4-dihydropyrido[4,3-d]pyrimidin-2(1H)-one] | 106%
5 | Cc1cc2c(cc1N1Cc3c(cc(-n4cncn4)nc3C3CC3)NC1=O)OC(c1ncccc1F)CC2 (stereo not shown) [Example 140, 5-cyclopropyl-3-(2-(3-fluoropyridin-2-yl)-6-methyl-3,4-dihydro-2H-chromen-7-yl)-7-(1H-1,2,4-triazol-1-yl)-3,4-dihydropyrido[4,3-d]pyrimidin-2(1H)-one] | 99%
6 | Cc1ncc(Cl)c2c1NC(=O)N(c1cc3c(cc1Cl)CC[C@H](c1ncccc1F)O3)C2 [Example 8, 5-chloro-3-((2R)-6-chloro-2-(3-fluoropyridin-2-yl)-3,4-dihydro-2H-chromen-7-yl)-8-methyl-3,4-dihydropyrido[3,4-d]pyrimidin-2(1H)-one] | 103%
7 | Cc1cc2c(cc1N1Cc3c(C4CC4)ccnc3NC1=O)OC(c1ncccc1F)CC2 (stereo not shown) [Example 50, 5-cyclopropyl-3-(2-(3-fluoropyridin-2-yl)-6-methyl-3,4-dihydro-2H-chromen-7-yl)-3,4-dihydropyrido[2,3-d]pyrimidin-2(1H)-one] | 67%

The remaining lines, values ahead:

Row | inhibitory rate (%) | SMILES
8 | 100% | Cc1ccc(OCc2ncccc2F)cc1N1Cc2ccc(C(=O)Nc3ccccc3)cc2NC1=O [Example 273, 3-(5-((3-fluoropyridin-2-yl)methoxy)-2-methylphenyl)-2-oxo-N-phenyl-1,2,3,4-tetrahydroquinazoline-7-carboxamide]
9 | 64% | Cc1cc(I)c(OCc2ncccc2F)cc1N1Cc2ccc(Cl)cc2NC1=O [Example 304, 7-chloro-3-(5-((3-fluoropyridin-2-yl)methoxy)-4-iodo-2-methylphenyl)-3,4-dihydroquinazolin-2(1H)-one]
10 | 74% | O=C1Nc2ccccc2CN1c1cc(OCc2ncccc2F)ccc1CN1CCCC1 [Example 306, 3-(5-((3-fluoropyridin-2-yl)methoxy)-2-(pyrrolidin-1-ylmethyl)phenyl)-3,4-dihydroquinazolin-2(1H)-one]
